The source of these data is ChEMBL document CHEMBL4196241, “Auranthine, a Benzodiazepinone from Penicillium aurantiogriseum: Refined Structure, Absolute Configuration, and Cytotoxicity” (J Nat Prod, 2018).

As usually defined, the IC50 is the concentration that inhibits the measured activity by half.

Calls of active or inactive are those of the source. No cut-off for these calls is given here.

Test [1] can be described thus: (§1) Cytotoxicity against human IHKE cells assessed as reduction in cell viability by CCK8 assay. It is filed as functional, cell-based.
Test [2] has as its system HepG2. The test can be described thus: Cytotoxicity against human HepG2 cells assessed as reduction in cell viability at 100 uM by CCK8 assay relative to control. It is filed as functional.
For test [3], the system named is HepG2. The test can be described thus: Cytotoxicity against human HepG2 cells assessed as reduction in cell viability by CCK8 assay relative to control. It is filed as functional, cell-based. For orientation: Formazan colour is commonly taken as a measure of viable cells.
The test system of test [4] is HepG2. Briefly: Cytotoxicity against human HepG2 cells assessed as reduction in cell viability up to 100 uM by CCK8 assay. It is filed as functional, cell-based.
Test [5] is filed under the species Homo sapiens. Described as §1. It is filed as functional, cell-based.
The species entered for test [6] is Homo sapiens. Briefly: Cytotoxicity against human IHKE cells assessed as reduction in cell viability up to 100 uM by CCK8 assay. It is filed as functional, cell-based.

In the case of `C=CC(C)(C)c1[nH]cnc1/C=C1\NC(=O)[C@H](C(C)C)NC1=O`, the IC50 in test [1] stood at 25 µM. In addition, the values for the Activity entry in test [2] and in test [3] were “<=56%” and “Dose-dependent effect”, respectively.
With `CN1C(=O)c2ccccc2N2C(=O)c3ccccc3N[C@@H]2[C@@H]1CCC#N`, the outcome in test [4] was inactive. For the same compound, the Activity result in test [5] is “Dose-dependent effect”.
Take `N#CCC[C@@H]1NC(=O)c2ccccc2N2C(=O)c3ccccc3N[C@H]12`: the result in test [4] and in test [6] was inactive.
In the case of `N#CCC[C@@H]1NC(=O)c2ccccc2-n2c1nc1ccccc1c2=O`, the outcome in test [4] and in test [6] was inactive.
